Literature values as cited in patent US9872927B2, “Dye solution” (FLUORON GMBH, priority 2008, dated 2018).

Key:
[1] = dye of U.S. Pat. No. 7,014,991

SMILES | concentration in water tolerated by eukaryotes (eukaryotes) [%] | irritation in the area of application (eukaryotes) | cytotoxicity [1]
[2H]O[2H] [Heavy water, D2O] | ≤ 20 | does not lead to any irritation | –
O=C1/C(=C2\Nc3ccc(S(=O)(=O)O)cc3C2=O)Nc2ccc(S(=O)(=O)O)cc21 [indigotindisulfonate] | – | – | cytotoxic
